Target: T1, hVR1 (Homo sapiens, UniProt Q8NER1)
T1 construct: expressed in transfected cells; host or cells: HEK293
Experiment: Human VR1 (hVR1) Functional Assay (FLIPR intracellular calcium, capsaicin challenge)
Format: cell-based
Conditions: capsaicin 0.030 μM, HEK293 cells expressing hVR1; for inhibition at 1 µM: test concentration 1 μM

T1 sequence (Q8NER1 whole entry): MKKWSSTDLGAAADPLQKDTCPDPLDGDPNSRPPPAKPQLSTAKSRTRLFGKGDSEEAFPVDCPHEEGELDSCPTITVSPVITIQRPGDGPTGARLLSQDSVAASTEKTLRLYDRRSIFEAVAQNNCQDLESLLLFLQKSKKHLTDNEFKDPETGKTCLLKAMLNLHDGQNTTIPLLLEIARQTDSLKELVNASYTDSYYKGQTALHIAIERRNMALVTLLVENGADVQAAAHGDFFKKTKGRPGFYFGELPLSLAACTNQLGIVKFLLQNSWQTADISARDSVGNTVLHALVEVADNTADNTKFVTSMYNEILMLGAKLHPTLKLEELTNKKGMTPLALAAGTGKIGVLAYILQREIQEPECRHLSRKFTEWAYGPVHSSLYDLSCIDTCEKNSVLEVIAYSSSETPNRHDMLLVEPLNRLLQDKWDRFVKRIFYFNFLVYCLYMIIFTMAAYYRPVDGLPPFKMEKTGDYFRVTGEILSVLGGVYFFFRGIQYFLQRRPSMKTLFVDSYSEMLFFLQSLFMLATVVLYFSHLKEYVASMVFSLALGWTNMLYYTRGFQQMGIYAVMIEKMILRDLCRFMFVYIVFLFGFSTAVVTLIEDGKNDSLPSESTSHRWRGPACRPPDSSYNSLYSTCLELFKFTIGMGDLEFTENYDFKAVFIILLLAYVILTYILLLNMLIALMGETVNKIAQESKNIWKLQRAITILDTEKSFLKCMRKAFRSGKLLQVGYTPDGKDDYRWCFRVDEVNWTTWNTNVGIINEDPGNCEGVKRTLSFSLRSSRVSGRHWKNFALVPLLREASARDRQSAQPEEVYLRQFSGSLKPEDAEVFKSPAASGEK

| Compound | IC50 [nM] | inhibition at 1 µM [%] |
| --- | --- | --- |
| CN(C)S(=O)(=O)c1ccccc1-c1ccc2[nH]c(CCc3ccc(C(F)(F)F)cc3)nc2c1 [Cpd 399, N,N-dimethyl-2-{2-[2-(4-trifluoromethyl-phenyl)-ethyl]-1H-benzimidazol-5-yl}-benzenesulfonamide] | 3 | 97 |
| CNS(=O)(=O)c1ccccc1-c1ccc2[nH]c(/C=C/c3cc(F)c(F)cc3F)nc2c1 [Cpd 324, (E)-N-methyl-2-{2-[2-(2,4,5-trifluoro-phenyl)-vinyl]-1H-benzimidazol-5-yl}-benzenesulfonamide] | 33 | 98 |
| NC(=O)c1ccccc1-c1ccc2[nH]c(/C=C/c3ccc(SC(F)(F)F)cc3)nc2c1 [Cpd 38, (E)-2-{2-[2-(4-trifluoromethylsulfanyl-phenyl)-vinyl]-1H-benzimidazol-5-yl}-benzamide] | 270 | 89 |
| CNS(=O)(=O)c1ccccc1-c1ccc2[nH]c(/C=C/c3cccc(OC(F)(F)F)c3)nc2c1 [Cpd 344, (E)-N-methyl-2-{2-[2-(3-trifluoromethoxy-phenyl)-vinyl]-1H-benzimidazol-5-yl}-benzenesulfonamide] | 24 | 101 |
| NS(=O)(=O)NCc1ccccc1-c1ccc2[nH]c(/C=C/c3ccc(C(F)(F)F)cc3)nc2c1 [Cpd 491, (E)-5-(2-aminosulfonylamino-methylphenyl)-2-[2-(4-trifluoromethyl-phenyl)-vinyl]-1H-benzimidazole] | 77 |  |
| CNS(=O)(=O)c1ccccc1-c1ccc2[nH]c(/C=C/c3ccc(Cl)cc3Cl)nc2c1 [Cpd 337, (E)-2-{2-[2-(2,4-dichloro-phenyl)-vinyl]-1H-benzimidazol-5-yl}-N-methyl-benzenesulfonamide] | 14 | 96 |
| CNS(=O)(=O)c1ccccc1-c1ccc2[nH]c(/C=C/c3ccc(F)cc3F)nc2c1 [Cpd 349, (E)-2-{2-[2-(2,4-difluoro-phenyl)-vinyl]-1H-benzimidazol-5-yl}-N-methyl-benzenesulfonamide] | 59 | 99 |
| CS(=O)(=O)Nc1ccccc1-c1ccc2[nH]c(/C=C/c3ccc(F)c(Cl)c3)nc2c1 [Cpd 408, (E)-N-(2-{2-[2-(3-chloro-4-fluoro-phenyl)-vinyl]-1H-benzimidazol-5-yl}-phenyl)-methanesulfonamide] |  | 64 |
| CNS(=O)(=O)c1ccccc1-c1ccc2[nH]c(/C=C/c3cccc(F)c3F)nc2c1 [Cpd 325, (E)-2-{2-[2-(2,3-difluoro-phenyl)-vinyl]-1H-benzimidazol-5-yl}-N-methyl-benzenesulfonamide] |  | 73 |
| CNS(=O)(=O)c1ccccc1-c1ccc2[nH]c(/C=C/c3ccc(C#N)cc3)nc2c1 [Cpd 451, (E)-2-{2-[2-(4-cyano-phenyl)-vinyl]-1H-benzimidazol-5-yl}-N-methyl-benzenesulfonamide] | 28 | 101 |
| NS(=O)(=O)c1ccccc1-c1ccc2[nH]c(CCc3ccc(F)c(C(F)(F)F)c3)nc2c1 [Cpd 383, 2-{2-[2-(4-fluoro-3-trifluoromethyl-phenyl)-ethyl]-1H-benzimidazol-5-yl}-benzenesulfonamide] | 11 | 96 |
| Oc1ccccc1-c1cc2nc(/C=C/c3ccc(C(F)(F)F)cc3)[nH]c2cc1F [Cpd 59, (E)-2-{6-fluoro-2-[2-(4-trifluoromethyl-phenyl)-vinyl]-1H-benzimidazol-5-yl}-phenol] | 440 | 80 |
| CNS(=O)(=O)c1ccccc1-c1ccc2[nH]c(/C=C/c3ccc(S(=O)(=O)C(F)(F)F)cc3)nc2c1 [Cpd 342, (E)-N-methyl-2-{2-[2-(4-trifluoromethanesulfonyl-phenyl)-vinyl]-1H-benzimidazol-5-yl}-benzenesulfonamide] | 24 | 98 |
| CNS(=O)(=O)c1ccccc1-c1ccc2[nH]c(/C=C/c3ccc(Cl)cc3)nc2c1 [Cpd 347, (E)-2-{2-[2-(4-chloro-phenyl)-vinyl]-1H-benzimidazol-5-yl}-N-methyl-benzenesulfonamide] | 44 | 100 |
| NC(=O)c1ccccc1-c1ccc2[nH]c(/C=C/c3ccc(C(F)(F)F)cc3)nc2c1 [Cpd 13, (E)-2-{2-[2-(4-trifluoromethyl-phenyl)-vinyl]-1H-benzimidazol-5-yl}-benzamide] | 310 | 82 |
| NS(=O)(=O)c1ccccc1-c1ccc2[nH]c(CCc3ccc(F)cc3)nc2c1 [Cpd 420, 2-{2-[2-(4-fluoro-phenyl)-ethyl]-1H-benzimidazol-5-yl}-benzenesulfonamide] | 15 | 93 |
| NS(=O)(=O)c1ccccc1-c1ccc2[nH]c(CCc3ccc(C(F)(F)F)cc3)nc2c1 [Cpd 130, 2-{2-[2-(4-trifluoromethyl-phenyl)-ethyl]-1H-benzimidazol-5-yl}-benzenesulfonamide] | 6 | 100 |
| CS(=O)(=O)c1ccccc1-c1ccc2[nH]c(C3CC3c3ccc(C(F)(F)F)cc3)nc2c1 (stereo not drawn) [Cpd 500, 5-(2-methanesulfonyl-phenyl)-2-[2-(4-trifluoromethyl-phenyl)-cyclopropyl]-1H-benzimidazole] | 19 | 97 |

| Compound | IC50 [nM] | inhibition at 1 µM [%] |
| --- | --- | --- |
| CC(=O)c1ccccc1-c1ccc2[nH]c(/C=C/c3ccc(OC(F)(F)F)cc3)nc2c1 [Cpd 20, (E)-1-(2-{2-[2-(4-trifluoromethoxy-phenyl)-vinyl]-1H-benzimidazol-5-yl}-phenyl)-ethanone] | 320 |  |
| CS(=O)(=O)Nc1ccccc1-c1ccc2[nH]c(/C=C/c3ccc(OC(F)F)cc3)nc2c1 [Cpd 410, (E)-N-(2-{2-[2-(4-difluoromethoxy-phenyl)-vinyl]-1H-benzimidazol-5-yl}-phenyl)-methanesulfonamide] | 156 | 91 |
| CS(=O)(=O)Nc1ccccc1-c1ccc2[nH]c(/C=C/c3cc(F)cc(C(F)(F)F)c3)nc2c1 [Cpd 411, (E)-N-(2-{2-[2-(3-fluoro-5-trifluoromethyl-phenyl)-vinyl]-1H-benzimidazol-5-yl}-phenyl)-methanesulfonamide] | 350 | 85 |
| NS(=O)(=O)c1ccccc1-c1ccc2[nH]c(/C=C/c3ccc(C(F)F)cc3)nc2c1 [Cpd 435, (E)-2-{2-[2-(4-difluoromethyl-phenyl)-vinyl]-1H-benzimidazol-5-yl}-benzenesulfonamide] | 20 | 97 |
| NS(=O)(=O)c1ccccc1-c1ccc2[nH]c(CCc3cc(F)cc(C(F)(F)F)c3)nc2c1 [Cpd 421, 2-{2-[2-(3-fluoro-5-trifluoromethyl-phenyl)-ethyl]-1H-benzimidazol-5-yl}-benzenesulfonamide] | 10 | 95 |
| CNS(=O)(=O)c1ccccc1-c1ccc2[nH]c(/C=C/c3ccc(NC(C)=O)cc3)nc2c1 [Cpd 452, (E)-N-(4-{2-[5-(2-methylsulfamoyl-phenyl)-1H-benzimidazol-2-yl]-vinyl}-phenyl)-acetamide] |  | 5 |
| CNS(=O)(=O)c1ccccc1-c1ccc2[nH]c(/C=C/c3ccccc3Cl)nc2c1 [Cpd 346, (E)-2-{2-[2-(2-chloro-phenyl)-vinyl]-1H-benzimidazol-5-yl}-N-methyl-benzenesulfonamide] | 264 | 87 |
| O=S(=O)(c1ccc(/C=C/c2nc3cc(-c4ccccc4O)ccc3[nH]2)cc1)C(F)(F)F [Cpd 41, (E)-2-{2-[2-(4-trifluoromethanesulfonyl-phenyl)-vinyl]-1H-benzimidazol-5-yl}-phenol] | 280 | 90 |
| CNS(=O)(=O)c1ccccc1-c1ccc2[nH]c(/C=C/c3ccc(C(F)(F)F)cc3F)nc2c1 [Cpd 320, (E)-2-{2-[2-(2-fluoro-4-trifluoromethyl-phenyl)-vinyl]-1H-benzimidazol-5-yl}-N-methyl-benzenesulfonamide] | 13 | 100 |
| NS(=O)(=O)c1ccc(C(F)(F)F)cc1-c1ccc2[nH]c(/C=C/c3ccc(C(F)(F)F)cc3)nc2c1 [Cpd 444, (E)-4-trifluoromethyl-2-{2-[2-(4-trifluoromethyl-phenyl)-vinyl]-1H-benzimidazol-5-yl}-benzenesulfonamide] | 28 | 98 |
| CN(C)Cc1ccccc1-c1ccc2[nH]c(/C=C/c3ccc(C(F)(F)F)cc3)nc2c1 [Cpd 483, (E)-dimethyl-(2-{2-[2-(4-trifluoromethyl-phenyl)-vinyl]-1H-benzimidazol-5-yl}-benzyl)-amine] |  | 21 |
| CN(C)S(=O)(=O)c1ccccc1-c1ccc2[nH]c(/C=C/c3ccc(C(F)(F)F)cc3)nc2c1 [Cpd 398, (E)-N,N-dimethyl-2-{2-[2-(4-trifluoromethyl-phenyl)-vinyl]-1H-benzimidazol-5-yl}-benzenesulfonamide] | 3 | 97 |
| CCOC(=O)c1ccccc1-c1ccc2[nH]c(/C=C/c3ccc(C(F)(F)F)cc3)nc2c1 [Cpd 466, (E)-2-{2-[2-(4-trifluoromethyl-phenyl)-vinyl]-1H-benzimidazol-5-yl}-benzoic acid ethyl ester] | 71 | 98 |
| OCc1ccccc1-c1ccc2[nH]c(/C=C/c3ccc(C(F)(F)F)cc3)nc2c1 [Cpd 476, (E)-(2-{2-[2-(4-trifluoromethyl-phenyl)-vinyl]-1H-benzimidazol-5-yl}-phenyl)-methanol] | 68 |  |
| CC(C)(O)c1ccccc1-c1ccc2[nH]c(C#Cc3cccc(C(F)(F)F)c3)nc2c1 [Cpd 294, 2-{2-[2-(3-trifluoromethyl-phenylethynyl)-1H-benzimidazol-5-yl]-phenyl}-propan-2-ol] | 9.1 | 101 |
| NS(=O)(=O)c1ccccc1-c1ccc2[nH]c(CCc3cc(C(F)(F)F)cc(C(F)(F)F)c3)nc2c1 [Cpd 387, 2-{2-[2-(3,5-bis-trifluoromethyl-phenyl)-ethyl]-1H-benzimidazol-5-yl}-benzenesulfonamide] | 41 | 98 |
| NS(=O)(=O)c1ccccc1-c1ccc2[nH]c(CCc3ccc(F)c(F)c3F)nc2c1 [Cpd 384, 2-{2-[2-(2,3,4-trifluoro-phenyl)-ethyl]-1H-benzimidazol-5-yl}-benzenesulfonamide] | 7 | 98 |
